# Columns and labels:
# Experiment in all cases: KinomeScan panel screen
# Format in all cases: binding
# [1] = target: T1, MELK (Homo sapiens, UniProt Q14680); settings: 100 nM, read-out: Percent Control
# T1 construct: purchased DiscoveRx KINOMEscan (TRKA and CSF1R IC50 enzymes from Invitrogen)
# Description: (§1) In addition, NPA101.3, at a concentration of 100 nM, was subjected to a kinome scan against a 96-kinase panel representing major kinome clusters (Table S2). The compound featured good selectivity, displaying strong binding activity (>90% bound) for only seven additional kinases [CSF1R (colony stimulating factor 1 receptor), FRK (fyn-related Src family tyrosine kinase), HCK (HCK proto-oncogene, Src family tyrosine kinase), LYN (lyn proto-oncogene, Src family tyrosine kinase), MKNK2 (MAPK-interacting serine/threonine kinase 2), TRKA (neurotrophic receptor tyrosine kinase 1), and TRKC (neurotrophic receptor tyrosine kinase 3)] and weak binding (>10–35% bound) for six other kinases (Table S2 and Figure S2). It is important to note that the measurement of binding affinity, which is based on control ligand displacement (Kd), is more sensitive than the in vitro kinase assay. Among the seven kinases with >90% binding, TRKA and CSF1R were selected for an in vitro kinase assay.
# (§2) Supplementary Table S2: NPA101.3 KinomeScan Panel screen.
# (§3) NPA101.3 was screened at a single concentration of 100 nM. Hits values lower than
# (§4) 10% of control were considered strongly positive.
# (§5) DiscoveRx Gene Entrez Gene Percent Compound
# (§6) Symbol Symbol Control Concentration
# [2] = target: T2, ALK (Homo sapiens, UniProt Q9UM73); settings: 100 nM, read-out: Percent Control
# T2 construct: purchased DiscoveRx KINOMEscan (TRKA and CSF1R IC50 enzymes from Invitrogen)
# T2 sequence (Q9UM73 19-1620): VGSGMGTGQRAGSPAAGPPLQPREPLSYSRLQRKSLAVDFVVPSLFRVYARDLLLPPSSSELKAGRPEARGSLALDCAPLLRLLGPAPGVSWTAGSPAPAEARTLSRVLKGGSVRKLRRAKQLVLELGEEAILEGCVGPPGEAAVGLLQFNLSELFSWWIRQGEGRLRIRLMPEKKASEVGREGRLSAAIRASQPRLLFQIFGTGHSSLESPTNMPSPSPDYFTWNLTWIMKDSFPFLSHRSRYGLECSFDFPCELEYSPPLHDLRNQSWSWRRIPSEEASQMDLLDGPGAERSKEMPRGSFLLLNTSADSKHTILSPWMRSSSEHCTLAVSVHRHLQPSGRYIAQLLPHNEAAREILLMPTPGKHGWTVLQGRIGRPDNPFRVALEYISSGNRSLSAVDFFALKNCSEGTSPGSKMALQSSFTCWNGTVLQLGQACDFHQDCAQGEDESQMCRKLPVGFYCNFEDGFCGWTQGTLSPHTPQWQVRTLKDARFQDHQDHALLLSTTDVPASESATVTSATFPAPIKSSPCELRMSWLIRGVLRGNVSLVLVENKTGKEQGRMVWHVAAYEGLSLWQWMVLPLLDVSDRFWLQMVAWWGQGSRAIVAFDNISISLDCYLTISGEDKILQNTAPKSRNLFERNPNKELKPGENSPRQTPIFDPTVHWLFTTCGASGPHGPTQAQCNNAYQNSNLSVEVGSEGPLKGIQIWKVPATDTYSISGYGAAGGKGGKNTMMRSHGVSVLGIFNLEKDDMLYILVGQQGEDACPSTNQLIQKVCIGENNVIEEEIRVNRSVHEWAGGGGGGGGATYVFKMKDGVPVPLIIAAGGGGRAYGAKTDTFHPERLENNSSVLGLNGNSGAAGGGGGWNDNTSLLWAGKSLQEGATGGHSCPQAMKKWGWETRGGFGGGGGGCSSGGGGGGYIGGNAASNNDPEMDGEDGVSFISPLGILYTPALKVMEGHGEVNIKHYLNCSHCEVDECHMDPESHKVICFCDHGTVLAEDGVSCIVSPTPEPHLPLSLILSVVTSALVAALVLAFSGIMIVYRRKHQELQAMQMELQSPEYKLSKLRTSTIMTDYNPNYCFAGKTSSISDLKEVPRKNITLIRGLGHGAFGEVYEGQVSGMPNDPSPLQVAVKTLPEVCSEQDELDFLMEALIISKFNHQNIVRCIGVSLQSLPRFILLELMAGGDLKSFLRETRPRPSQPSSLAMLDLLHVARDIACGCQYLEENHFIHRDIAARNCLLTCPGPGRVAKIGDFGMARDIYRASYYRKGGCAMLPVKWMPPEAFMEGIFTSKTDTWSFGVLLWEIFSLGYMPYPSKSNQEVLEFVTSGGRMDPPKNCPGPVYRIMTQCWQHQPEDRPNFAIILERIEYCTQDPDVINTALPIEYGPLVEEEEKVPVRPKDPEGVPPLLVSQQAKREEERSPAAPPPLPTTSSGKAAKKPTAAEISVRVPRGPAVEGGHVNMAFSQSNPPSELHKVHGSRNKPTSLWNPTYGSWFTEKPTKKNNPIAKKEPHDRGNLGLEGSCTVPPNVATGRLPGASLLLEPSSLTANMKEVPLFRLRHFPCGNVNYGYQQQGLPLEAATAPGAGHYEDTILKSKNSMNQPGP
# Description: as §1, §2, §3, §4, §5, §6
# [3] = target: T3, PIM2 (Homo sapiens, UniProt Q9P1W9); settings: PIM2, 100 nM; read-out: Percent Control
# T3 construct: purchased DiscoveRx KINOMEscan (TRKA and CSF1R IC50 enzymes from Invitrogen)
# Description: as §1, §2, §3, §4, §5, §6
# [4] = target: T4, ULK1 (Homo sapiens, UniProt O75385); settings: ULK1, 100 nM; read-out: Percent Control
# T4 construct: purchased DiscoverX (outsourced KINOMEscan)
# Description: as §1, §2, §3, §4, §5, §6
# [5] = target: T5, DLK (Homo sapiens, UniProt Q12852); settings: 100 nM, read-out: Percent Control
# T5 construct: purchased DiscoveRx KINOMEscan (TRKA and CSF1R IC50 enzymes from Invitrogen)
# Description: as §1, §2, §3, §4, §5, §6
# [6] = target: T6, RPS6KA4(Kin.Dom.2-C-terminal) (Homo sapiens, UniProt O75676); settings: 100 nM, read-out: Percent Control
# T6 construct: RPS6KA4(Kin.Dom.2-C-terminal); purchased DiscoveRx KINOMEscan (TRKA and CSF1R IC50 enzymes from Invitrogen)
# Description: as §1, §2, §3, §4, §5, §6
# [7] = target: T7, MAP4K3 (Homo sapiens, UniProt Q8IVH8); settings: MAP4K3, 100 nM; read-out: Percent Control
# T7 construct: purchased DiscoveRx KINOMEscan (TRKA and CSF1R IC50 enzymes from Invitrogen)
# Description: as §1, §2, §3, §4, §5, §6
# [8] = target: T8, MYLK4 (Homo sapiens, UniProt Q86YV6); settings: MYLK4, 100 nM; read-out: Percent Control
# T8 construct: purchased DiscoveRx KINOMEscan (TRKA and CSF1R IC50 enzymes from Invitrogen)
# Description: as §1, §2, §3, §4, §5, §6
# [9] = target: T9, DYRK1A (Homo sapiens, UniProt Q13627); settings: 100 nM, read-out: Percent Control
# T9 construct: purchased DiscoveRx KINOMEscan (TRKA and CSF1R IC50 enzymes from Invitrogen)
# Description: as §1, §2, §3, §4, §5, §6
# [10] = target: T10, LRRK2 (Homo sapiens, UniProt Q5S007); settings: LRRK2, 100 nM; read-out: Percent Control
# T10 construct: purchased DiscoveRx KINOMEscan (TRKA and CSF1R IC50 enzymes from Invitrogen)
# Description: as §1, §2, §3, §4, §5, §6
# [11] = target: T11, IKK-beta (Homo sapiens, UniProt O14920); settings: 100 nM, read-out: Percent Control
# T11 construct: purchased DiscoveRx KINOMEscan (TRKA and CSF1R IC50 enzymes from Invitrogen)
# Description: as §1, §2, §3, §4, §5, §6
# [12] = target: T12, IGF1R (Homo sapiens, UniProt P08069); settings: 100 nM, read-out: Percent Control
# T12 construct: purchased DiscoveRx KINOMEscan (TRKA and CSF1R IC50 enzymes from Invitrogen)
# Description: as §1, §2, §3, §4, §5, §6
# [13] = target: T13, ULK2 (Homo sapiens, UniProt Q8IYT8); settings: ULK2, 100 nM; read-out: Percent Control
# T13 construct: purchased DiscoverX (outsourced KINOMEscan)
# Description: as §1, §2, §3, §4, §5, §6
# [14] = target: T14, ROCK2 (Homo sapiens, UniProt O75116); settings: ROCK2, 100 nM; read-out: Percent Control
# T14 construct: purchased DiscoveRx KINOMEscan (TRKA and CSF1R IC50 enzymes from Invitrogen)
# Description: as §1, §2, §3, §4, §5, §6
# [15] = target: T15, LYN (Homo sapiens, UniProt P07948); settings: 100 nM
# T15 construct: purchased DiscoveRx KINOMEscan (TRKA and CSF1R IC50 enzymes from Invitrogen)
# T15 sequence (P07948 whole entry): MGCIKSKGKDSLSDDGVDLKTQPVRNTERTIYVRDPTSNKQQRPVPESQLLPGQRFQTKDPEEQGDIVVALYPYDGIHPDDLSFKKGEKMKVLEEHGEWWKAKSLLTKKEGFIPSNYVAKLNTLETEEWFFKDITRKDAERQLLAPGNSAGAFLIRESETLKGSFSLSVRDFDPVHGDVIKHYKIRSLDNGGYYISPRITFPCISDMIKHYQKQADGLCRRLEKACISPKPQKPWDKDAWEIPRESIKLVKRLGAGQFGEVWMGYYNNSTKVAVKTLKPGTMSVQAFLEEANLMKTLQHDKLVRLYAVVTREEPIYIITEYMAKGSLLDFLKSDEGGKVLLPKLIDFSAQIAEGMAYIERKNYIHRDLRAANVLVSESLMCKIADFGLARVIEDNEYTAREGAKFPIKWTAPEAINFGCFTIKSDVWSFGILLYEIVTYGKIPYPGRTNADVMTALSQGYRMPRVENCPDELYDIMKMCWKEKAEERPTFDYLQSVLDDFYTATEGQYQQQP
# Description: as §1, §2, §3, §4, §5, §6
# [16] = target: T16, WNK1 (Homo sapiens, UniProt Q9H4A3); settings: WNK1, 100 nM; read-out: Percent Control
# T16 construct: purchased DiscoverX (outsourced KINOMEscan)
# Description: as §1, §2, §3, §4, §5, §6
# [17] = target: T17, S6K1 (Homo sapiens, UniProt P23443); settings: S6K1, 100 nM; read-out: Percent Control
# T17 construct: purchased DiscoveRx KINOMEscan (TRKA and CSF1R IC50 enzymes from Invitrogen)
# Description: as §1, §2, §3, §4, §5, §6
# [18] = target: T18, FRK (Homo sapiens, UniProt P42685); settings: 100 nM
# T18 construct: purchased DiscoveRx KINOMEscan (TRKA and CSF1R IC50 enzymes from Invitrogen)
# T18 sequence (P42685 whole entry): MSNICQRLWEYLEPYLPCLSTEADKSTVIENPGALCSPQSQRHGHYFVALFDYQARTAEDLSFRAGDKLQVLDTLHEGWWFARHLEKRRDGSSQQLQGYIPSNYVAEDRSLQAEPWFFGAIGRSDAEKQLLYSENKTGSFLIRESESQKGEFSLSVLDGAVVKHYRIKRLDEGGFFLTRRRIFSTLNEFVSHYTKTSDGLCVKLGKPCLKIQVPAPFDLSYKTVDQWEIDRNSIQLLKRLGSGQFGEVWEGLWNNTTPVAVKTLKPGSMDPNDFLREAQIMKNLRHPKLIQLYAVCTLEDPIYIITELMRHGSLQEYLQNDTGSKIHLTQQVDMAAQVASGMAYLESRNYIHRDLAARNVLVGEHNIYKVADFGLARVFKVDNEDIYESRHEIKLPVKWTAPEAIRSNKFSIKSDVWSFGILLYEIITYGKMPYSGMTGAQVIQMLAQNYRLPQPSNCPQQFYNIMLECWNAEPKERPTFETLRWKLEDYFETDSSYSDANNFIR
# Description: as §1, §2, §3, §4, §5, §6
# [19] = target: T19, SYK (Homo sapiens, UniProt P43405); settings: 100 nM, read-out: Percent Control
# T19 construct: purchased DiscoveRx KINOMEscan (TRKA and CSF1R IC50 enzymes from Invitrogen)
# Description: as §1, §2, §3, §4, §5, §6
# [20] = target: T20, CAMK2A (Homo sapiens, UniProt Q9UQM7); settings: 100 nM, read-out: Percent Control
# T20 construct: purchased DiscoveRx KINOMEscan (TRKA and CSF1R IC50 enzymes from Invitrogen)
# Description: as §1, §2, §3, §4, §5, §6
# [21] = target: T21, TRKA (Homo sapiens, UniProt P04629); settings: 100 nM
# T21 construct: purchased Invitrogen
# T21 sequence (P04629 33-796): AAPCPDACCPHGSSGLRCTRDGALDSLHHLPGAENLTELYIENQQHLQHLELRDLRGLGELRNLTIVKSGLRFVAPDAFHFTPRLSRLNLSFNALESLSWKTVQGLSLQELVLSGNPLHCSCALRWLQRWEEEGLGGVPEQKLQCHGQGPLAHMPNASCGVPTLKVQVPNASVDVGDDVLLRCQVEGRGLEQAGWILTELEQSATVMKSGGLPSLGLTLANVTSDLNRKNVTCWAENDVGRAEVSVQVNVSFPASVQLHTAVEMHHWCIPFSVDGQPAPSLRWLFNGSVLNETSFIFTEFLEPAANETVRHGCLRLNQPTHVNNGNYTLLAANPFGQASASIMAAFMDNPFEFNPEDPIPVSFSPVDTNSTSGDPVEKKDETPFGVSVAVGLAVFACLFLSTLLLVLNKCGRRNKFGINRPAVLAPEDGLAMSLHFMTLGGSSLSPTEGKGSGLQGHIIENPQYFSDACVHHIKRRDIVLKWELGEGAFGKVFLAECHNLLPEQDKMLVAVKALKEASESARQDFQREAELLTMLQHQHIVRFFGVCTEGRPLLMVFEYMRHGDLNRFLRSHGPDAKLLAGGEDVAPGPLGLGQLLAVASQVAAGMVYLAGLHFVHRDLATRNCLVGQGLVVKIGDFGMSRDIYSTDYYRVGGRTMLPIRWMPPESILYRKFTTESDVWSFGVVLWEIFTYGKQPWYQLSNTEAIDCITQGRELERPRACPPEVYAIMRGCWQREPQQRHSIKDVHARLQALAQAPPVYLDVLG
# Description: as §1, §2, §3, §4, §5, §6
# [22] = target: T22, CSF1R (Homo sapiens, UniProt P07333); settings: 100 nM
# T22 construct: purchased Invitrogen
# T22 sequence (P07333 20-972): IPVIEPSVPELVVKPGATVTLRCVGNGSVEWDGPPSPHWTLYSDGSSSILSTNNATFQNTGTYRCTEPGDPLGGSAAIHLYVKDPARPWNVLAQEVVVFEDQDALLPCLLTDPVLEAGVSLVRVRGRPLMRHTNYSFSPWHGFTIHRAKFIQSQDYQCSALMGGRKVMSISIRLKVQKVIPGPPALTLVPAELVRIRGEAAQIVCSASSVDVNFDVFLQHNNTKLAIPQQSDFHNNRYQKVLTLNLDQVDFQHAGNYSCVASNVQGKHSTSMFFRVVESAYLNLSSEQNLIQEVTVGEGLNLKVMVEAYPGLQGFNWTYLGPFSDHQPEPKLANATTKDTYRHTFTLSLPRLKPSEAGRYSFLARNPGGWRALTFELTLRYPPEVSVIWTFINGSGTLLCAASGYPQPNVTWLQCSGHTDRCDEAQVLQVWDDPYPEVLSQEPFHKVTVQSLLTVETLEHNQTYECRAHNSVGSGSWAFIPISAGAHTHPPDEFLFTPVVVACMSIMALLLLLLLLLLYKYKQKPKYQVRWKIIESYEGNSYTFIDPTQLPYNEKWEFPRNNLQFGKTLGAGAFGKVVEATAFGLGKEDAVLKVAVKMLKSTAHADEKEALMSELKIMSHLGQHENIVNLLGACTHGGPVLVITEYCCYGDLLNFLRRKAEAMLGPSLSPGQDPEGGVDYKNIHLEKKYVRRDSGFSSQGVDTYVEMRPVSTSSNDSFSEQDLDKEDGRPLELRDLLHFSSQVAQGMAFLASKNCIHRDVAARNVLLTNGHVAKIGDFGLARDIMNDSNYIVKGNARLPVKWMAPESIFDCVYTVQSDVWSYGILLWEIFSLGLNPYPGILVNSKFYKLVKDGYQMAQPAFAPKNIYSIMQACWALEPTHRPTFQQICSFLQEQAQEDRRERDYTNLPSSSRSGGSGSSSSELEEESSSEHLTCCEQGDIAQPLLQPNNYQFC
# Description: as §1, §2, §3, §4, §5, §6
# [23] = target: T23, FER (Homo sapiens, UniProt P16591); settings: 100 nM, read-out: Percent Control
# T23 construct: purchased DiscoveRx KINOMEscan (TRKA and CSF1R IC50 enzymes from Invitrogen)
# Description: as §1, §2, §3, §4, §5, §6
# [24] = target: T24, LIMK2 (Homo sapiens, UniProt P53671); settings: LIMK2, 100 nM; read-out: Percent Control
# T24 construct: purchased DiscoveRx KINOMEscan (TRKA and CSF1R IC50 enzymes from Invitrogen)
# Description: as §1, §2, §3, §4, §5, §6
# [25] = target: T25, PYK2 (Homo sapiens, UniProt Q14289); settings: PYK2, 100 nM; read-out: Percent Control
# T25 construct: purchased DiscoveRx KINOMEscan (TRKA and CSF1R IC50 enzymes from Invitrogen)
# Description: as §1, §2, §3, §4, §5, §6
# [26] = target: T26, MLK2 (Homo sapiens, UniProt Q02779); settings: MLK2, 100 nM; read-out: Percent Control
# T26 construct: purchased DiscoveRx KINOMEscan (TRKA and CSF1R IC50 enzymes from Invitrogen)
# Description: as §1, §2, §3, §4, §5, §6
# [27] = target: T27, TLK1 (Homo sapiens, UniProt Q9UKI8); settings: TLK1, 100 nM; read-out: Percent Control
# T27 construct: purchased DiscoveRx KINOMEscan (TRKA and CSF1R IC50 enzymes from Invitrogen)
# T27 sequence (Q9UKI8 whole entry): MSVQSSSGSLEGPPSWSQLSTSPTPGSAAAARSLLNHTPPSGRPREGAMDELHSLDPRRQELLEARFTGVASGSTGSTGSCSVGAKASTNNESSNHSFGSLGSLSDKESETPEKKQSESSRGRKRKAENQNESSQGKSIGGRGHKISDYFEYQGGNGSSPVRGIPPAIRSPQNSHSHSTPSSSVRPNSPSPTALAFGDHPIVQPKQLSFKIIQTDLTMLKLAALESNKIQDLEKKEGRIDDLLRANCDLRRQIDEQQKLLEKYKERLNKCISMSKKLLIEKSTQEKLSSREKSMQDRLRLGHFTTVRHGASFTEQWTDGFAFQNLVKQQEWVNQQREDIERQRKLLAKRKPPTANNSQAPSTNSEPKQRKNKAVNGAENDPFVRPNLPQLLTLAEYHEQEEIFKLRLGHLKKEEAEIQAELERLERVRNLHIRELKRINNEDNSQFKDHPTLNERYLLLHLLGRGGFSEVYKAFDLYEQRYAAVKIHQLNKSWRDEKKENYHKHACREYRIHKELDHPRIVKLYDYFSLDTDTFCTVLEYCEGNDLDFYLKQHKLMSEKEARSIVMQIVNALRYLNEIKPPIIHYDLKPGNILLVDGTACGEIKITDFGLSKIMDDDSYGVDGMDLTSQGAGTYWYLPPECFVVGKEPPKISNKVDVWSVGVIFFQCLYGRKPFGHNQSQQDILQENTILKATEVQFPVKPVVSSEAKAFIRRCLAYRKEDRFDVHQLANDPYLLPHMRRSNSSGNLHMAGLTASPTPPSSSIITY
# Description: as §1, §2, §3, §4, §5, §6
# [28] = target: T28, CHEK2 (Homo sapiens, UniProt O96017); settings: CHEK2, 100 nM; read-out: Percent Control
# T28 construct: purchased DiscoveRx KINOMEscan (TRKA and CSF1R IC50 enzymes from Invitrogen)
# Description: as §1, §2, §3, §4, §5, §6
# [29] = target: T29, MLK3 (Homo sapiens, UniProt Q16584); settings: MLK3, 100 nM; read-out: Percent Control
# T29 construct: purchased DiscoveRx KINOMEscan (TRKA and CSF1R IC50 enzymes from Invitrogen)
# Description: as §1, §2, §3, §4, §5, §6
# [30] = target: T30, BUB1 (Homo sapiens, UniProt O43683); settings: BUB1, 100 nM; read-out: Percent Control
# T30 construct: purchased DiscoveRx KINOMEscan (TRKA and CSF1R IC50 enzymes from Invitrogen)
# Description: as §1, §2, §3, §4, §5, §6
smiles,measurement,setting,value
CC(C)(C)c1cc(NC(=O)Cc2ccc(-n3cnc4cc(-c5ccc(S(C)(=O)=O)cc5)ccc43)cc2)no1 [NPA101.3],remaining binding at 0.1 µM,[1],83%
same,remaining binding at 0.1 µM,[2],93%
same,remaining binding at 0.1 µM,[3],94%
same,remaining binding at 0.1 µM,[4],100%
same,remaining binding at 0.1 µM,[5],100%
same,remaining binding at 0.1 µM,[6],100%
same,remaining binding at 0.1 µM,[7],95%
same,remaining binding at 0.1 µM,[8],89%
same,remaining binding at 0.1 µM,[9],95%
same,remaining binding at 0.1 µM,[10],100%
same,remaining binding at 0.1 µM,[11],100%
same,remaining binding at 0.1 µM,[12],100%
same,remaining binding at 0.1 µM,[13],100%
same,remaining binding at 0.1 µM,[14],100%
same,binding (% bound),[15],> 90 % bound
same,remaining binding at 0.1 µM,"[15]; LYN, read-out: Percent Control",2.8%
same,remaining binding at 0.1 µM,[16],93%
same,remaining binding at 0.1 µM,[17],100%
same,binding (% bound),[18],> 90 % bound
same,remaining binding at 0.1 µM,"[18]; FRK, read-out: Percent Control",1.1%
same,remaining binding at 0.1 µM,[19],100%
same,remaining binding at 0.1 µM,[20],98%
same,binding (% bound),[21],> 90 % bound
same,remaining binding at 0.1 µM,"[21]; TRKA, read-out: Percent Control",1.3%
same,binding (% bound),[22],> 90 % bound
same,remaining binding at 0.1 µM,"[22]; CSF1R, read-out: Percent Control",0.05%
same,remaining binding at 0.1 µM,[23],96%
same,remaining binding at 0.1 µM,[24],94%
same,remaining binding at 0.1 µM,[25],95%
same,remaining binding at 0.1 µM,[26],100%
same,remaining binding at 0.1 µM,[27],100%
same,remaining binding at 0.1 µM,[28],79%
same,remaining binding at 0.1 µM,[29],100%
same,remaining binding at 0.1 µM,[30],100%

# From article PMC7901654, “Bioisosteric Discovery of NPA101.3, a Second-Generation RET/VEGFR2 Inhibitor Optimized for Single-Agent Polypharmacology” (Journal of Medicinal Chemistry, 2020)
